Structures are written as SMILES. Where “and” joins values, the source holds several entries; their conditions need not be identical. Equal values may be shown once.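 Tested at 5 concentrations; 48 h exposure; 96-well plates; endpoints linearly interpolated, else capped at highest concentration. The concentration for 50% growth inhibition is given as GI50. The concentration for full growth arrest is given as TGI.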

The values below come from PubChem BioAssay (NCI).

In one assay the test system is SK-MEL-2 melanoma. Kind of assay: NCI-60 cell line screen, 48 h.
As for `Cn1cc(C2=C(c3cn(C)c4ccc(N)cc34)C(=O)NC2=O)c2ccccc21`, the GI50 was 8.46 µM and the TGI is > 25 µM.

For `CCCCN1C(=O)CC2[C@@H]3CCc4cc(OC)ccc4C3CC[C@]2(C)C1=O` (stereo not given in full), the TGI was > 10 µM.

With `COc1cc(Nc2ccnc(N3CCN(c4ccnc5cc(Cl)ccc45)CC3)n2)cc(OC)c1`, the GI50 is 0.738 µM and the TGI is 4.02 µM.

Consider `C/C(=N\O)c1ccc(Nc2cc(-n3nnc4ccccc43)nc3ccccc23)cc1`, for which the GI50 was 15.6 µM and the TGI was 47.6 µM.

For `C[C@]12CC[C@@H]3c4ccc(O)c([N+](=O)[O-])c4CC[C@H]3[C@@H]1CC[C@@H]2NS(=O)(=O)c1ccc(C(F)(F)F)cc1`, the GI50 was 2.1 µM and the TGI came out at 4.18 µM.

As for `CC[C@H](C)[C@H](NC(=O)c1cnccn1)C(=O)N(C)[C@H](C[C@@H](OC(C)=O)c1nc(C(=O)N[C@@H](Cc2ccccc2)C[C@H](C)C(=O)OC)cs1)C(C)C`, the GI50 was 0.827 µM and the TGI is > 33.3 µM.

As to `Cc1c(C)c2cc3c(=O)ccoc3c(C)c2oc1=O`, the TGI is > 100 µM.

The next assay has as its system 786-0 renal. Kind of assay: NCI-60 cell line screen, 48 h.
As to `COc1cc(-c2csc(NC(=O)c3cc(C(F)(F)F)cc(C(F)(F)F)c3)n2)cc(OC)c1OC`, the GI50 is 3.16 µM and the TGI was > 100 µM.

In the case of `CC(C)=CCC12Cc3ccc(O)cc3C(C(C)CN1)C2C` (stereo not given), the TGI is > 100 µM.

The compound `CC[N+]1(C)CCC(O)(c2ccc(C)cc2)C(C(=O)c2ccc(C)cc2)C1` (stereo not given) displayed a TGI of 34.6 µM.

Turning to `CC(=O)c1cccc(N(/C=C/C(=O)C(F)(F)F)CC(=O)c2ccc(Cl)cc2)c1`, the GI50 is > 100 µM and the TGI was > 100 µM.

As for `COc1ccc(Cl)cc1Nc1nc(C(F)(F)F)ccc1C(=O)NN`, the GI50 is 2.42 µM and the TGI was > 25.8 µM.

In turn, `CC(C)c1ccc2nc3ccc(C(=O)NCCN(C)C)cn3c(=O)c2c1` showed a TGI of 27.8 µM.

For `C#C[C@]1(O)CC[C@H]2[C@@H]3CC=C4c5nc(Nc6ccccn6)sc5CC[C@]4(C)[C@H]3CC[C@@]21C`, the GI50 was 0.389 µM and the TGI came out at 1.69 µM.

On to `CSc1ccc(C2=Nn3c(nnc3-c3ccc(F)c(Cl)c3)SC2)cc1`, for which the GI50 was 13.5 µM and the TGI turned out to be 32 µM.

On to `CNC(=O)Nc1ccc(-c2nc(N3CCOCC3)nc3c2cnn3C2CCOCC2)cc1`, for which the GI50 was 0.295 µM and the TGI is 2.86 µM.

Take `O=c1oc2ccccc2c(O)c1C=NC(=S)c1ccncc1`: the TGI is > 100 µM.

`NCCCCNCCCNC(=O)CNC(=O)CC(O)C(N)CCCC(NC(=O)C(CN)NC(=O)C(O)CNC(=O)CC(N)c1ccc(O)cc1)C(=O)O` (stereo not given): the TGI was > 10 µM.

In the case of `N/C(=N\OC(=O)c1ccccc1)C(C(=O)NOC(=O)c1ccccc1)C1CCCCC1` (stereo not given), the GI50 is 13.9 µM and the TGI is 26.9 µM.

Consider `CCOc1ccc(N=Nc2ccc3cc(/C(C)=N/NC(=O)/C(C#N)=C\c4ccc(N(CCC#N)CCC#N)cc4)c(=O)oc3c2)cc1`, for which the TGI was > 10 µM.

Turning to `O=C(O)c1cc[c]([Hg][S]c2ncnc3nc[nH]c23)cc1`, the GI50 is 5.83 µM and the TGI came to 21.9 µM.

Consider `CC(C)(C)OC(=O)NCC(C#N)CNC(=O)OC(C)(C)C`, for which the TGI was > 100 µM.

As for `CN1CCCN(CCNc2nccc(-c3c(-c4cccc(O)c4)nc4sccn34)n2)S1(=O)=O`, the GI50 is 5.55 µM and 7.14 µM; the TGI was 72.4 µM and > 100 µM.

Compound `CC(O)CNC1=CC(=O)C(=O)c2ccccc21` (stereo not given) yielded a TGI of 32.2 µM.

For the compound `CC1=C(C(=O)NC2CCCCC2)CC(C(=O)NC2CCCCC2)=C(C)N1`, the TGI is > 100 µM.

Turning to `Cc1ccc(C(=O)Cc2nc3c([nH]c2=O)c(C)nn3-c2ccccc2)c(C)c1`, the TGI was > 10 µM.

As to `Cn1cc(C2=C(c3cn(C)c4ccc(N)cc34)C(=O)NC2=O)c2ccccc21`, the GI50 was 19.7 µM and the TGI was > 25 µM.

In the case of `CCCCN1C(=O)CC2[C@@H]3CCc4cc(OC)ccc4C3CC[C@]2(C)C1=O` (stereo not given in full), the TGI is > 10 µM.

As to `COc1cc(Nc2ccnc(N3CCN(c4ccnc5cc(Cl)ccc45)CC3)n2)cc(OC)c1`, the GI50 is 1.6 µM and the TGI stood at 4.6 µM.

Regarding `O=C(CC(C(=O)c1cccs1)c1ccc2c(c1)OCO2)c1ccc(Br)cc1` (stereo not given), the TGI is > 100 µM.

Take `C/C(=N\O)c1ccc(Nc2cc(-n3nnc4ccccc43)nc3ccccc23)cc1`: the GI50 was 4.89 µM and the TGI came out at 13.3 µM.

Take `C[C@]12CC[C@@H]3c4ccc(O)c([N+](=O)[O-])c4CC[C@H]3[C@@H]1CC[C@@H]2NS(=O)(=O)c1ccc(C(F)(F)F)cc1`: the GI50 was 2.05 µM and the TGI amounted to 4.35 µM.

With `CC[C@H](C)[C@H](NC(=O)c1cnccn1)C(=O)N(C)[C@H](C[C@@H](OC(C)=O)c1nc(C(=O)N[C@@H](Cc2ccccc2)C[C@H](C)C(=O)OC)cs1)C(C)C`, the GI50 was 1.71 µM and the TGI is > 21.9 µM.

For the compound `Cc1c(C)c2cc3c(=O)ccoc3c(C)c2oc1=O`, the TGI was > 100 µM.

Consider `N#Cc1ccc(-c2nc(C#N)c(N)o2)cc1`, for which the TGI was > 10 µM.

In a further assay the test system is HT29 colon. Briefly: NCI-60 cell line screen, 48 h.
With `COc1cc(-c2csc(NC(=O)c3cc(C(F)(F)F)cc(C(F)(F)F)c3)n2)cc(OC)c1OC`, the GI50 was 2.07 µM and the TGI is > 100 µM.

In the case of `CC(C)=CCC12Cc3ccc(O)cc3C(C(C)CN1)C2C` (stereo not given), the TGI is > 100 µM.

`CC[N+]1(C)CCC(O)(c2ccc(C)cc2)C(C(=O)c2ccc(C)cc2)C1` (stereo not given): the TGI was > 100 µM.

As to `CC(=O)c1cccc(N(/C=C/C(=O)C(F)(F)F)CC(=O)c2ccc(Cl)cc2)c1`, the GI50 is > 100 µM and the TGI is > 100 µM.

Consider `COc1ccc(Cl)cc1Nc1nc(C(F)(F)F)ccc1C(=O)NN`, for which the GI50 was 26.3 µM and the TGI was > 100 µM.

Consider `CC(C)c1ccc2nc3ccc(C(=O)NCCN(C)C)cn3c(=O)c2c1`, for which the TGI was 24.5 µM.

As for `C#C[C@]1(O)CC[C@H]2[C@@H]3CC=C4c5nc(Nc6ccccn6)sc5CC[C@]4(C)[C@H]3CC[C@@]21C`, the GI50 was 1.6 µM and the TGI worked out at 3.94 µM.
